Source: patent US4460560A, “Drug delivery by polymeric carriers” (University of Southern California, priority 1982, dated 1984)
pIC50: −log10 of the molar value.

What was measured:
hepatocytes [1] = assay: Cell viability by 51Cr release; format: cell-based, rat; set-up: concentration or dose not given beside the values
Description: (§1) Cytotoxic effects of the microspheres of EXAMPLE 3 and free doxorubicin were investigated using short-term monolayer cultures established from the livers of normal rats and rats which had been fed 2-AAF or DEN. Cell viability was evaluated by trypan blue exclusion and confirmed by ^51 Cr release.
(§2) Male Fischer 344 rats weighing 150 to 200 g were used to obtain viable hepatocytes. The animals were fed a basal, high-casein diet. A 12-hr light cycle was maintained in the animal colony and water was given ad libitum. Carcinogen altered hepatocytes were produced by feeding the animals a diet containing 0.02% 2-AAF (w/w) or 80 ppm DEN in the drinking water for 8 to 12 weeks. Cells from such animals were used in the cytotoxicity and cell viability studies reported herein.
(§3) Liver cell suspensions were prepared by the collagenase perfusion technique. Cell suspensions were passed through sterile gauze filters to remove large tissue pieces. Viability was assessed by trypan blue exclusion and perfusates containing less than 65% viable cells were not used. Cells were plated at density of 1×10^6 viable cells per plastic culture flask of 25 cm^2 surface area in 4 ml of L-15 medium containing 3.5 mg/ml 4-(2-hydroxyethyl)-1-piperazineethanesulfonic acid and 2 mg/ml bovine serum albumin. The medium was supplemented with 10% fetal bovine serum, 100 μg/ml penicillin, and streptomycin. Following a 2 hour attachment period at 37° in a water-saturated 5% CO2 -95% air incubator, the cells were washed twice with medium and placed in 4ml of fresh medium supplemented with 200 μl PBS, free doxorubicin, uncoupled microspheres, or the polymer bound drug. At various times 0.8 ml of trypan blue was added to each flask and incubated for 10 minutes at 37°. The medium was removed and the number of viable cells was counted.
^51 Cr in the form of sodium chromate in sterile isotonic saline was added to the cell suspensions at a concentration of 100 μCi/0.5 ml/5×10^6 cells. The cells were then incubated at 37° for 1 hour with constant shaking. After labeling, the supernatent was removed by centrifugation at 350×g for 5 min and the cells were washed a minimum of 5 times in L-15 medium. Labeled cells were then aliquoted into culture flasks and allowed to attach as previously described. At various times 250 μl aliquots were removed from the flasks and counted in a Packard Gamma Counter. As a control for complete ^51 Cr release, 0% cell viability, cells were detached from the culture flask surface with 10% trypsin and subsequently lysed with 0.5% Nonidet P-40 followed by sonication. Total ^51 Cr release was obtained by subtraction of the residual radioactivity which remained associated with the cell debris.

hepatocytes [2] = assay: Cell viability by trypan blue exclusion (Table 2); format: cell-based, rat; set-up: concentration or dose not given beside the values
Description: as §1, §2, §3

[3] = Time-survival response, trypan blue viability; format: cell-based; conditions: rat, hepatocytes, 10^-6 M
Excerpt: as §2, §3
These studies are not continued for longer than 24 hours due to the rapid natural decline in viability observed with untreated cells after prolonged cell culture. The viability of untreated control cultures remained constant throughout each experiment. […] However, cell viability in the presence of free drug was not affected during the first 4 hours of treatment. Alternatively, at 24 hours only 10% of the cells treated with free drug remained viable while 64% of those treated with the bound drug were unaffected. Cell viability was not influenced by addition of uncoupled microspheres to the cultures.

[4] = test system: hepatocytes made resistant by 2-AAF feeding; assay: Viability of carcinogen altered drug-resistant hepatocytes; format: cell-based, rat; conditions: for viability at 1 µM: 10^-6 M
Excerpt: as §2, §3
Hepatocytes in perfusates obtained from rats which had been fed the dietary carcinogen 2-AAF are highly resistant to the cytocidal effects of doxorubicin. Experiments were performed to determine the toxicity of the doxorubicin microspheres with regard to these resistant hepatocytes. […] Concentrations of free doxorubicin must be approximately 100-fold higher than the polymer-bound drug to decrease viability to 50%. The most significant differences in cytotoxicity occurred at a concentration of 10^-5 M where the free drug treated hepatocytes remained unaffected and polymer-bound doxorubicin decreased viability to 47%. Subsequent experiments were done with 10^-6 M, free or bound drug, to approach clinically relevant concentrations.
Cell kill kinetics of hepatocytes made resistant by 2-AAF feeding are depicted in TABLE 5. […] At 24 hours, only 67% of the cells remained viable. When hepatocytes made resistant by DEN feeding were used, the same results for free and polymer-bound Adr at 10^-6 M were obtained.

[5] = test system: hepatocytes made resistant by DEN feeding; assay: as above; format: cell-based, rat; conditions: 24 hours; 10^-6 M
Excerpt: as §2
Liver cell suspensions were prepared by the collagenase perfusion technique. Cell suspensions were passed through sterile gauze filters to remove large tissue pieces. Viability was assessed by trypan blue exclusion and perfusates containing less than 65% viable cells were not used. Cells were plated at density of 1×10^6 viable cells per plastic culture flask of 25 cm^2 surface area in 4 ml of L-15 medium containing 3.5 mg/ml 4-(2-hydroxyethyl)-1-piperazineethanesulfonic acid and 2 mg/ml bovine serum albumin. The medium was supplemented with 10% fetal bovine serum, 100 μg/ml penicillin, and streptomycin. […] The medium was removed and the number of viable cells was counted. […]

CCRF-CEM/Vbl 100 = assay: Cytostatic assay, IC50 determination; format: cell-based; conditions: Homo sapiens, after 4 to 6 doubling times, average of three determinations
Description: (§4) In order to test the cytostatic activity of the microspheres, IC50 determinations were made with both the free drug and the drug-polymer complexes. All cell lines were maintained in suspension cultures in RPMI-1640 medium supplemented with the 2% fetal calf serum, 8% newborn calf serum, 0.5 mg/ml penicillin-streptomycin, and 0.015 mg/ml fungizone. The cells were diluted to 40,000 cells/assay/1.8 ml medium and an amount of free doxorubicin, doxorubicin-microspheres or plain microspheres was added in 0.2 ml of phosphate buffered saline. After 4 to 6 doubling times had elapsed, the remaining cells were counted on a Coulter counter. A ratio of the number of cells after incubation per the number of cells originally introduced (Nt/No) was obtained. The drug concentration required for 50% inhibition of cell growth (IC50) was calculated according to the formula [formula]

CCRF-CEM/Vbl 500 = assay: Cytostatic assay, IC50 determination; format: cell-based; conditions: Homo sapiens, after 4 to 6 doubling times, average of three determinations
Description: as §4

CCRF-CEM = assay: Cytostatic assay, IC50 determination; format: cell-based; conditions: Homo sapiens, after 4 to 6 doubling times, average of three determinations
Description: as §4

L1210 = assay: Cytostatic assay, IC50 determination; format: cell-based; conditions: Mus musculus, after 4 to 6 doubling times, average of three determinations
Description: as §4

S-180 = assay: Cytostatic assay, IC50 determination; format: cell-based; conditions: after 4 to 6 doubling times, average of three determinations
Description: as §4

CEM/Vbl 100 = assay: Growth inhibition study; format: cell-based, human; conditions: 3-6 doubling times
Description: (§5) Cell lines used were the human leukemia clones CCRF-CEM/Vbl 500 and CCRF-CEM/Vbl 100 and rat liver cancer cells (RLC). All cultures were maintained in RPMI-1640 medium supplemented with fetal calf serum (2%), newborn calf serum (8%), penicillin-streptomycin (0.5 mg/ml), and fungizone (0.015 mg/ml) (Flow Laboratories Inc.). Suspension cultures were diluted to 4×10^4 cells/assay/1.8 ml medium and attached cell lines were plated at 2.5×10^5 cells/25 cm^2 growth area/3.6 ml medium. Appropriate quantities of free doxorubicin, microsphere coupled doxorubicin, plain polyglutaraldehyde microspheres, or PBS, were added and the assays were incubated for 3-6 doubling times at 37° in a 5% CO2 - 95% air incubator. Cells were then counted on a Model Zb Coulter counter and a ratio of total number of cells after incubation per number of cells originally introduced (Nt /No) was obtained.
(§6) The cell lines CEM/Vbl 100 and CEM/Vbl 500 were used in cytostatic assays to determine differences in growth inhibition properties between free doxorubicin and polymer-bound drug. Both cell lines are resistant to the effects of vinca alkaloids and are cross-resistant to Adr. […] However, using 10^-7 M of the coupled drug, the growth inhibition for both cell lines is greater than 50%. At 10^-8 M, polymer bound doxorubicin inhibits growth 4-10 times more effectively than free drug. […] Each experiment was performed three times and drug concentrations were tested in duplicate.

CEM/Vbl 500 = assay: Growth inhibition study; format: cell-based, human; conditions: Table 7, CEM/Vbl 100
Description: as §5, §6

[6] = test system: rat liver cancer cell line RLC; assay: Growth inhibition study; format: cell-based
Description: as §5
The cytostatic activity of the drug polymer complex of EXAMPLE 3 was further investigated using the rat liver cancer cell line RLC. […] Furthermore, the Adr-PGLs retained growth inhibition properties at concentrations as low as 1×10^-9 M.

[7] = Homo sapiens, CEM/VBL100, 10^-5 M
[8] = Homo sapiens, CEM/VBL100, 10^-6 M
[9] = Homo sapiens, CEM/VBL100, 10^-7 M
[10] = Homo sapiens, CEM/VBL100, 10^-8 M
[11] = Homo sapiens, CEM/VBL100, 10^-9 M
[12] = Homo sapiens, CEM/VBL100, 10^-10 M

## COc1cccc2c1C(=O)c1c(O)c3c(c(O)c1C2=O)C[C@@](O)(C(=O)CO)C[C@@H]3O[C@H]1C[C@H](N)[C@H](O)[C@H](C)O1 [Free doxorubicin, doxorubicin]
Hepatocytes [1]; incubation time 3 hr
  Percent viability measured by Intracellular CR^51: 100%
Hepatocytes [1]; incubation time 5 hr
  Percent viability measured by Intracellular CR^51: 96%
Hepatocytes [1]; incubation time 8 hr
  Percent viability measured by Intracellular CR^51: 86%
Hepatocytes [1]; incubation time 12 hr
  Percent viability measured by Intracellular CR^51: 75%
Hepatocytes [1]; incubation time 18 hr
  Percent viability measured by Intracellular CR^51: 57%
Hepatocytes [2]; incubation time 3 hr
  Percent viability measured by Dye Exclusion: 100%
Hepatocytes [2]; incubation time 5 hr
  Percent viability measured by Dye Exclusion: 99%
Hepatocytes [2]; incubation time 8 hr
  Percent viability measured by Dye Exclusion: 81%
Hepatocytes [2]; incubation time 12 hr
  Percent viability measured by Dye Exclusion: 72%
Hepatocytes [2]; incubation time 18 hr
  Percent viability measured by Dye Exclusion: 59%
[3]; 2 hours
  viability at 2 h, 1 µM: 99%
[3]; 4 hours
  viability at 4 h, 1 µM: 98%
[3]; 6 hours
  viability at 6 h, 1 µM: 91%
[3]; 8 hours
  viability at 8 h, 1 µM: 81%
[3]; 12 hours
  viability at 12 h, 1 µM: 72%
[3]; 18 hours
  viability at 18 h, 1 µM: 59%
[3]; 24 hours
  viability at 24 h, 1 µM: 10%
[4]; 10^-5 M, 24-hr exposure, survival of attached cells compared to controls
  % Viability: unaffected
[4]; 24 hours, 10^-6 M (Table 5)
  % Viability: no detectable killing effect
[4]; Rattus norvegicus, Hepatocyte, 10^-4 M, 24-hr exposure, survival of attached cells compared to controls
  viability at 100 µM: 68%
[4]; Rattus norvegicus, Hepatocyte, 10^-5 M, 24-hr exposure, survival of attached cells compared to controls
  viability at 10 µM: 100%
[4]; Rattus norvegicus, Hepatocyte, 24-hr exposure, survival of attached cells compared to controls (Table 3)
  viability at 1 µM: 100%
[4]; Rattus norvegicus, Hepatocyte, 10^-7 M, 24-hr exposure, survival of attached cells compared to controls
  viability at 0.1 µM: 100%
[4]; Rattus norvegicus, Hepatocyte, 2 hours
  viability at 1 µM: 100%
[4]; Rattus norvegicus, Hepatocyte, 3 hours
  viability at 1 µM: 100%
[4]; Rattus norvegicus, Hepatocyte, 4 hours
  viability at 1 µM: 100%
[4]; Rattus norvegicus, Hepatocyte, 6 hours
  viability at 1 µM: 100%
[4]; Rattus norvegicus, Hepatocyte, 8 hours
  viability at 1 µM: 100%
[4]; Rattus norvegicus, Hepatocyte, 16 hours
  viability at 1 µM: 100%
[4]; Rattus norvegicus, Hepatocyte, 22 hours
  viability at 1 µM: 100%
[5]
  viability: no killing effect
CCRF-CEM/Vbl 100
  pIC50: 6.41
CCRF-CEM/Vbl 500
  pIC50: 6.49
CCRF-CEM
  pIC50: 7.96
L1210
  pIC50: 7.55
S-180
  pIC50: 7.64
CEM/Vbl 100; 10^-7 M, listed as Free Drug
  % Inhibition of growth: 22%
CEM/Vbl 100; [7]
  inhibition at 10 µM: 98%
CEM/Vbl 100; [8]
  inhibition at 1 µM: 86%
CEM/Vbl 100; [9]
  inhibition at 0.1 µM: < 22%
CEM/Vbl 100; [10]
  inhibition at 0.01 µM: 3%
CEM/Vbl 100; [11]
  inhibition at 0.001 µM: 5%
CEM/Vbl 100; [12]
  inhibition at 0.0001 µM: 0%
CEM/Vbl 500; 10^-7 M, listed as Free Drug
  % Inhibition of growth: 32%
CEM/Vbl 500; [7]
  inhibition at 10 µM: 81%
CEM/Vbl 500; [8]
  inhibition at 1 µM: 67%
CEM/Vbl 500; [9]
  inhibition at 0.1 µM: < 32%
CEM/Vbl 500; [10]
  inhibition at 0.01 µM: 14%
CEM/Vbl 500; [11]
  inhibition at 0.001 µM: 0%
CEM/Vbl 500; [12]
  inhibition at 0.0001 µM: 0%
CEM/Vbl 500; Homo sapiens, CEM/VBL100, 10^-11 M
  inhibition at 10 pM: 0%
[6]; 10^-3 M
  inhibition at 1000 µM: 100%
[6]; 10^-4 M
  inhibition at 100 µM: 80%
[6]; 10^-5 M
  inhibition at 10 µM: 36%
[6]; 10^-6 M
  inhibition at 1 µM: 22%
[6]; 10^-7 M
  inhibition at 0.1 µM: 0%
[6]; 10^-8 M
  inhibition at 0.01 µM: 0%
[6]; 10^-9 M
  inhibition at 0.001 µM: 0%
[6]; 10^-10 M
  inhibition at 0.0001 µM: 0%
[6]; RLC, read-out: 50% inhibitory concentration (IC50)
  pIC50: 4.74
